US20130164351A1 (priority 2010, published 2013)

Columns and labels:
[1] = test system: P. aeruginosa strains from cystic fibrosis patients; experiment: Macrobroth dilution MICs against two P. aeruginosa strains; type: cell-based, Pseudomonas aeruginosa
[2] = test system: MRSA strains from cystic fibrosis patients; experiment: CLSI microdilution MICs against 40 MRSA strains; type: cell-based, Staphylococcus aureus; set-up: MICs (range): unit not given beside the values
Protocol: Strains. Two strains each of mucoid Pseudomonas aeruginosa (both pyocyanin positive) and 40 MRSA (only one strain with gold colonies), isolated within the past 12 months and beyond from patients at in cystic fibrosis clinic, were tested. Additionally, two B. cepacia strains were acquired from Hershey Medical Center. All strains were identified by standard methods. Only one strain per patient was tested. MLVA was done on all strains, to examine clonality and to ensure that testing was not being limited to only one or a few clones. Strains were stored in skim milk at −70° C. until use.
(§1) Susceptibility testing. Original MICs of each strain to CEM-102 and other comparators was tested by CLSI microdilution methodology. Trays were obtained from Trek, Inc., Cleveland, Ohio. Time-kill macrobroth MIC dilution by CLSI was performed for all synergy testing.
MICs were assayed by standard methodology.

[3] = test system: MRSA strains SA 2230, SA 2232; experiment: Time-kill macrobroth MICs, MRSA strains SA 2230 and SA 2232; type: cell-based, Staphylococcus aureus
Protocol: as §1
(§2) Synergy testing. Two of the MRSA strains were chosen and tested for synergy, together with the four Gram-negative strains mentioned above. Broth macrodilution formed the basis of MICs used in time-kill experiments, as detailed below. The kill kinetics of each drug was tested alone by incubating an initial inoculum of 5×10^5 to 5×10^6 cfu/ml with drug concentrations at the MIC, three dilutions above and three dilutions below the MIC (1/2, 1/4 and 1/8×MIC). Viability counts were performed after 0, 3, 6, 12 and 24 h incubation at 37° C. in a shaking water bath by plating onto trypticase soy-5% sheep blood agar plates.

[4] = blood; cited from earlier work
[5] = test system: P. aeruginosa strains PSAR 461, PSAR 468; experiment: Time-kill macrobroth MICs, P. aeruginosa strains PSAR 461 and PSAR 468; type: cell-based, Pseudomonas aeruginosa; conditions: strain PSAR 468
Protocol: as §1, §2

[6] = test system: B. cepacia strains BCEP 953, BCEP 954; experiment: Time-kill macrobroth MICs, B. cepacia strains BCEP 953 and BCEP 954; type: cell-based, Burkholderia cepacia
Protocol: as §1, §2

[7] = test system: B. cepacia strains from cystic fibrosis patients; experiment: Macrobroth dilution MICs against two B. cepacia strains; type: cell-based, Burkholderia cepacia
[8] = Staphylococcus aureus, microdilution, 40 MRSA strains

Compound: NCC[C@H](O)C(=O)N[C@@H]1C[C@H](N)[C@@H](O[C@H]2O[C@H](CN)[C@@H](O)[C@H](O)[C@H]2O)[C@H](O)[C@H]1O[C@H]1O[C@H](CO)[C@@H](O)[C@H](N)[C@H]1O [Amikacin]
- MIC Range [1]: 2 to 8 µg/mL

Compound: CCCCCCCCCC(=O)N[C@@H](Cc1c[nH]c2ccccc12)C(=O)N[C@H](CC(N)=O)C(=O)N[C@@H](CC(=O)O)C(=O)N[C@@H]1C(=O)NCC(=O)N[C@@H](CCCN)C(=O)N[C@@H](CC(=O)O)C(=O)N[C@H](C)C(=O)N[C@@H](CC(=O)O)C(=O)NCC(=O)N[C@H](CO)C(=O)N[C@@H]([C@H](C)CC(=O)O)C(=O)N[C@@H](CC(=O)c2ccccc2N)C(=O)O[C@@H]1C [Daptomycin]
- MIC Range ([2]; microdilution, 40 MRSA strains): 0.5-1^ μg/ml

Compound: CN[C@H](CC(C)C)C(=O)N[C@H]1C(=O)N[C@@H](CC(N)=O)C(=O)N[C@H]2C(=O)N[C@H]3C(=O)N[C@H](C(=O)N[C@H](C(=O)O)c4cc(O)cc(O)c4-c4cc3ccc4O)[C@H](O)c3ccc(c(Cl)c3)Oc3cc2cc(c3O[C@@H]2O[C@H](CO)[C@@H](O)[C@H](O)[C@H]2O[C@H]2C[C@](C)(N)[C@H](O)[C@H](C)O2)Oc2ccc(cc2Cl)[C@H]1O [Vancomycin]
- MIC Range ([2]; microdilution, 40 MRSA strains): 0.5-1^ μg/ml

Compound: Teicoplanin
- MIC Range ([2]; microdilution, 40 MRSA strains): 0.25 to 1 µg/mL

Compound: NC[C@H]1O[C@H](O[C@H]2[C@H](O)[C@@H](O[C@H]3O[C@H](CO)[C@@H](O)[C@H](N)[C@H]3O)[C@H](N)C[C@@H]2N)[C@H](N)C[C@@H]1O [Tobramycin, reference compound]
- MIC Range [1]: 0.25 to 1.0 µg/mL
- MIC (reason strain not tested in combination) ([3]; strain MRSA 2232): > 512 µg/mL

Compound: CC(=O)O[C@H]1C[C@@]2(C)[C@@H](C[C@@H](O)[C@H]3[C@@]4(C)CC[C@@H](O)[C@@H](C)[C@@H]4CC[C@@]32C)/C1=C(\CCC=C(C)C)C(=O)O [FA, Fusidic Acid]
- protein binding [4]: 95-97%

Compound: CC(=O)NC[C@H]1CN(c2ccc(N3CCOCC3)c(F)c2)C(=O)O1 [Linezolid]
- MICs (range) ([2]; all MRSA strains tested): 1-4
- MIC Range ([2]; microdilution, 40 MRSA strains): 1 to 4 µg/mL

Compound: CN(C)c1cc(NC(=O)CNC(C)(C)C)c(O)c2c1C[C@H]1C[C@H]3[C@H](N(C)C)C(O)=C(C(N)=O)C(=O)[C@@]3(O)C(O)=C1C2=O [Tigecycline]
- MIC Range ([2]; microdilution, 40 MRSA strains): 0.12 to 0.25 µg/mL

Compound: CC(=O)O[C@H]1C[C@@]2(C)[C@@H](C[C@@H](O)[C@H]3[C@@]4(C)CC[C@@H](O)[C@@H](C)[C@@H]4CC[C@@]32C)/C1=C(\CCC=C(C)C)C(=O)[O-].[Na+] [CEM-102, Sodium fusidate]
- Time-kill macrobroth MIC [5]: 256 µg/mL
- Time-kill macrobroth MIC ([6]; strain BCEP 953): 512 µg/mL
- Time-kill macrobroth MIC ([6]; strain BCEP 954): 512 µg/mL
- MIC50 [2, 8]: 0.12 µg/mL
- MIC90 [2, 8]: 0.25 µg/mL
- Potency in words ([2]; all strains of MRSA tested): very potent
- MIC Range ([2]; microdilution, 40 MRSA strains): 0.12 to 0.5 µg/mL
- MIC Range [1]: >64 µg/mL
- MIC Range [7]: >64 µg/mL
- Time-kill macrobroth MIC ([3]; strain SA 2230): 0.5 µg/mL
- Time-kill macrobroth MIC ([3]; strain SA 2232): 0.25 µg/mL
